# According to publication PMC4710668, “Bioactivation of food genotoxicants 5-hydroxymethylfurfural and furfuryl alcohol by sulfotransferases from human, mouse and rat: a comparative study” (Archives of Toxicology, 2014):
# Tests used:
# mSult2a3 = assay: FFA sulfoconjugation assay (N6-MF-A formation with adenosine as scavenger); type: biochemical, mouse
# Description: (§1) Cytosolic fractions containing individual SULT forms were prepared from transgenic S. typhimurium TA1538. Table S1 in the Supplementary Material provides a summary of the thirty SULTs used in the current study together with references describing the cloning of the respective S. typhimurium TA1538 strains. The expressed SULT forms are denoted with the prefixes h, m and r for human, mouse and rat enzymes, respectively. Bacteria were grown in Luria Broth medium containing ampicillin (100 µg/ml) by stirring for 8 h at 200 revolutions/min at 37 °C. The bacterial suspensions were centrifuged at 5,000 g for 10 min. The sediments were washed twice with 25 ml of 10 mM potassium phosphate buffer (pH 7.4)/50 mM potassium chloride (KCP buffer) and centrifuged again. The pellets were taken up in 800 µl KCP buffer and sonicated thrice for 15 s with 30 s pauses in between. The soluble fraction was attained by centrifuging for 1 h at 100,000 g. The supernatants (in the following termed cytosolic preparations) were frozen at −80 °C. The protein concentrations were determined according to a bicinchoninic acid (BCA) assay protocol. The SULT concentrations in the cytosolic preparations were estimated after electrophoretic separation and immunodetection using inclusion bodies of different SULT forms as standards (Teubner et al. [2007]). The preparation of SULT inclusion bodies and the immunodetection of SULTs is described in the Supplementary Material, which also contains a representative immunoblot of different amounts of rSult1a1standard and a cytosolic preparation of S. typhimurium expressing rSult1a1 (Fig. S1).
# (§2) The reaction mixtures were prepared as described for HMF. In addition, they contained 10 mM adenosine as a nucleophilic scavenger. Following incubation for 20 min at 37 °C, sulfoconjugation reactions were stopped by adding 100 µl cold methanol containing 175 fmol of [^15N5]N ^6-MF-A as the internal standard, mixed and centrifuged at 15,000 g for 10 min. The clear supernatants were subjected to UPLC-MS/MS analyses. Incubations were performed as quadruplicates. At higher concentrations, FFA reacts spontaneously with adenosine at low, but detectable, levels. To correct for the SULT-independent adduct formation, mixtures with SULT-deficient cytosols were carried along simultaneously in duplicate. Controls were subtracted from the experimental samples.
# (§3) The ribonucleoside adduct N ^6-((furan-2-yl)methyl)-adenosine (N ^6-MF-A) was analyzed by isotope-dilution UPLC-MS/MS with the same system described above using a HSS T3 column (1.8 µm, 2.1 × 100 mm, Waters). Samples of 8 µl were eluted with 10 mM ammonium bicarbonate buffer, pH 8.0 (A) and methanol (B) using an 6-min gradient from 98 % solvent A to 15 % solvent A at 0.35 ml/min flow rate (Yin et al. [2013]). The electrospray interface of the mass spectrometer operated in the positive ion mode. The fragmentations of N ^6-MF-A into the aglycone cation [N ^6-((furan-2-yl)methyl)-adenine-H]^+ (m/z = 348.1 → 216.1), the cleavage of the 2-methylfuranyl cation (m/z = 348.1 → 81.0) and the release of [N ^6-methyl-adenine-H]^+ (m/z = 348.1 → 148.0) were monitored together with the corresponding fragmentations of the isotope-labeled internal standard [^15N5]N ^6-MF-A for the formation of the aglycone (m/z = 353.1 → 221.1), the 2-methylfuran cation (m/z = 353.1 → 81.0) and ^15N5-labeled N ^6-methyl-adenine (m/z = 353.1 → 153.0). The N ^6-MF-A content of the incubation mixture was calculated from the ratio of peak areas resulting from the total ion current of all three MRM signals of the analyte. For the fragmentation of N ^6-MF-A ([^15N5]N ^6-MF-A), collision energies were 20, 25 and 35 eV for the transitions m/z = 348.1 → 216.1 (m/z = 353.1 → 221.1), m/z = 348.1 → 148.0 (m/z = 353.1 → 153.0) and m/z = 348.1 → 81.0 (m/z = 353.1 → 81.0), respectively. […]
# mSult5a1 = assay: as above; type: biochemical, mouse
# Description: as §1, §2, §3
# rSult2a4 = assay: as above; type: biochemical, rat
# Description: as §1, with “The SULT concentrations in the cytosolic preparations were estimated after electrophoretic separation and immunodetection using inclusion bodies of different SULT forms as standards (Teubner et al. [2007]). The preparation of SULT inclusion bodies and the immunodetection of SULTs is described in the Supplementary Material, which also contains a representative immunoblot of different amounts of rSult1a1standard and a cytosolic preparation of S. typhimurium expressing rSult1a1 (Fig. S1).” left out
# The ribonucleoside adduct N ^6-((furan-2-yl)methyl)-adenosine (N ^6-MF-A) was analyzed by isotope-dilution UPLC-MS/MS with the same system described above using a HSS T3 column (1.8 µm, 2.1 × 100 mm, Waters). […] The fragmentations of N ^6-MF-A into the aglycone cation [N ^6-((furan-2-yl)methyl)-adenine-H]^+ (m/z = 348.1 → 216.1), the cleavage of the 2-methylfuranyl cation (m/z = 348.1 → 81.0) and the release of [N ^6-methyl-adenine-H]^+ (m/z = 348.1 → 148.0) were monitored together with the corresponding fragmentations of the isotope-labeled internal standard [^15N5]N ^6-MF-A for the formation of the aglycone (m/z = 353.1 → 221.1), the 2-methylfuran cation (m/z = 353.1 → 81.0) and ^15N5-labeled N ^6-methyl-adenine (m/z = 353.1 → 153.0). The N ^6-MF-A content of the incubation mixture was calculated from the ratio of peak areas resulting from the total ion current of all three MRM signals of the analyte. […]
# male B6C3F1 mice = conditions: 32 ppm FFA in the air (equivalent to 60 mg FFA/kg bw/day), ref National Toxicology Program [1999]; cited from earlier work
smiles,measurement,setting,value
"OCc1ccco1 [FFA, furfuryl alcohol]",Rate of N6-MF-A formation,mSult2a3; 0.1 mM FFA,<18 fmol N ^6-MF-A/mg/min
same,Rate of N6-MF-A formation,mSult2a3; 1 mM FFA,<20 fmol N ^6-MF-A/mg/min
same,Rate of N6-MF-A formation,mSult2a3; 10 mM FFA,<44 fmol N ^6-MF-A/mg/min
same,Rate of N6-MF-A formation,mSult5a1; 0.1 mM FFA,<18 fmol N ^6-MF-A/mg/min
same,Rate of N6-MF-A formation,mSult5a1; 1 mM FFA,<20 fmol N ^6-MF-A/mg/min
same,Rate of N6-MF-A formation,mSult5a1; 10 mM FFA,<44 fmol N ^6-MF-A/mg/min
same,Rate of N6-MF-A formation,rSult2a4; 0.1 mM FFA,<18 fmol N ^6-MF-A/mg/min
same,Rate of N6-MF-A formation,rSult2a4; 1 mM FFA,<20 fmol N ^6-MF-A/mg/min
same,Rate of N6-MF-A formation,rSult2a4; 10 mM FFA,<44 fmol N ^6-MF-A/mg/min
same,carcinogenic effect,male B6C3F1 mice,induced renal tubule neoplasms
